Data taken from the NIST ThermoML archive (doi:10.1021/je400539h).
“And” between values parts separate entries of the source, which are not always exact repeats. Identical values can stand only once.

Columns and labels:
[1] = 101 kPa, Liquid
[2] = xn = mol fraction of the nth substance listed; conditions: 101 kPa, Liquid

C1COCCO1 [1,4-dioxane]
[1]
Conditions | mass density [kg/m3] | speed of sound [m/s] | viscosity [mPa·s]
298.15 K | 1028.2 | 1328 | 1.159
303.15 K | 1022.7 | 1320 | 1.087
308.15 K | 1017.4 | 1312 | 1.013
313.15 K | 1011.1 | 1304 | 0.934

C1CCOC1 [tetrahydrofuran]
[1]
Conditions | mass density [kg/m3] | speed of sound [m/s] | viscosity [mPa·s]
298.15 K | 881.5 | 1268 | 0.45
303.15 K | 878.7 | 1248 | 0.439
308.15 K | 873 | 1228 | 0.429
313.15 K | 866.9 | 1212 | 0.404

CCCCCCOC(C)=O [hexyl ethanoate]
[1]
Conditions | mass density [kg/m3] | speed of sound [m/s] | viscosity
298.15 K | 868.3 | 1236 | 1.071 mPa·s
303.15 K | 863.9 | 1216 | 0.982 mPa·s
308.15 K | 859.8 | 1196 | 0.898 mPa·s and 0.899 mPa·s
313.15 K | 855 | 1176 | 0.836 mPa·s

COc1ccccc1 [anisole]
[1]
Conditions | mass density [kg/m3] | speed of sound [m/s] | viscosity [mPa·s]
298.15 K | 993.6 | 1396 | 0.97
303.15 K | 989.4 | 1380 | 0.917
308.15 K | 984.6 | 1364 | 0.863
313.15 K | 980 | 1348 | 0.803

C=COCCCC [1-(ethenyloxy)butane]
[1]
Conditions | mass density [kg/m3] | speed of sound [m/s] | viscosity [mPa·s]
298.15 K | 780.2 | 1096 | 0.4
303.15 K | 774.1 | 1084 | 0.387
308.15 K | 768.2 | 1072 | 0.365
313.15 K | 763.3 | 1060 | 0.354

C=COCCCC [1-(ethenyloxy)butane] + CCCCCCOC(C)=O
[2]
Conditions | mass density [kg/m3] | speed of sound [m/s] | viscosity [mPa·s]
298.15 K, x2 = 0 | 780.2 | 1096 | 0.4
298.15 K, x2 = 0.0806 | 790.9 | 1100 | 0.44
298.15 K, x2 = 0.1668 | 801.3 | 1104 | 0.486
298.15 K, x2 = 0.2521 | 810.8 | 1112 | 0.538
298.15 K, x2 = 0.3443 | 820.3 | 1120 | 0.596
298.15 K, x2 = 0.4384 | 829.2 | 1128 | 0.657
298.15 K, x2 = 0.5392 | 838.1 | 1144 | 0.726
298.15 K, x2 = 0.644 | 846.6 | 1160 | 0.798
298.15 K, x2 = 0.7555 | 854.7 | 1180 | 0.879
298.15 K, x2 = 0.8741 | 862.1 | 1204 | 0.965
303.15 K, x2 = 0 | 774.1 | 1084 | 0.387
303.15 K, x2 = 0.0806 | 784.6 | 1088 | 0.423
303.15 K, x2 = 0.1668 | 795.1 | 1088 | 0.465
303.15 K, x2 = 0.2521 | 804.8 | 1096 | 0.508
303.15 K, x2 = 0.3443 | 814.5 | 1104 | 0.559
303.15 K, x2 = 0.4384 | 823.7 | 1112 | 0.615
303.15 K, x2 = 0.5392 | 832.8 | 1124 | 0.675
303.15 K, x2 = 0.644 | 841.3 | 1140 | 0.739
303.15 K, x2 = 0.7555 | 849.5 | 1160 | 0.812
303.15 K, x2 = 0.8741 | 857.1 | 1184 | 0.891
308.15 K, x2 = 0 | 768.2 | 1072 | 0.365
308.15 K, x2 = 0.0806 | 778.6 | 1072 | 0.398
308.15 K, x2 = 0.1668 | 789.1 | 1072 | 0.434
308.15 K, x2 = 0.2521 | 798.8 | 1076 | 0.474
308.15 K, x2 = 0.3443 | 808.7 | 1084 | 0.52
308.15 K, x2 = 0.4384 | 818.1 | 1092 | 0.567
308.15 K, x2 = 0.5392 | 827.4 | 1104 | 0.622
308.15 K, x2 = 0.644 | 836.3 | 1120 | 0.681
308.15 K, x2 = 0.7555 | 844.8 | 1140 | 0.745
308.15 K, x2 = 0.8741 | 852.7 | 1164 | 0.817
313.15 K, x2 = 0 | 763.3 | 1060 | 0.354
313.15 K, x2 = 0.0806 | 773.6 | 1056 | 0.385
313.15 K, x2 = 0.1668 | 784 | 1056 | 0.418
313.15 K, x2 = 0.2521 | 793.7 | 1060 | 0.454
313.15 K, x2 = 0.3443 | 803.6 | 1064 | 0.496
313.15 K, x2 = 0.4384 | 813 | 1072 | 0.538
313.15 K, x2 = 0.5392 | 822.3 | 1084 | 0.588
313.15 K, x2 = 0.644 | 831.2 | 1100 | 0.641
313.15 K, x2 = 0.7555 | 839.7 | 1120 | 0.7
313.15 K, x2 = 0.8741 | 847.7 | 1144 | 0.763
